These results are taken from patent publication US4454158A, “Allyl amine MAO inhibitors” (Merrell Toraude et Compagnie, priority 1981, dated 1984).

The test system of data set [1] is MAO-A and MAO-B. The conditions noted are these: literature; cited from earlier work.
In data set [2] the test system is MAO. Briefly: Inhibition of MAO - In vitro (14C p-tyramine substrate, partially purified rat brain mitochondria). The class given is biochemical. The conditions noted are these: tested as hydrochloride salt, read-out: IC50 (MAO inhibitory activity - In vitro). From the text:
(A) The ability of a compound of Formula I or II to inhibit MAO can be determined in vitro by the method of A. Christmas et al, Br. J. Pharmacol. 45, 490 (1972) in partially purified mitochondria from rat brain using ^14 C p-tyramine as the substrate.

Data set [3] has as its system MAO-B versus MAO-A. Nature of the data set: Selectivity of MAO inhibitors - In vitro (14C 5-hydroxytryptamine for MAO-A, 14C phenethylamine for MAO-B). The class given is biochemical, rat. The conditions noted are these: for Selectivity (ratio of inhibitory activity against MAO-B versus MAO-A): in vitro, rat brain mitochondria. The protocol: Mitochondria are prepared from rat brain by homogenation in phosphate buffer (0.1 M, pH 7.2) followed by differential centrifugation. The mitochondria are suspended in the same buffer, the test compound is added at the desired concentration, and the system is incubated. […] Christmas, et al, supra).
Selectivity is expressed as the ratio of the inhibitory activity against MAO-B versus the inhibitory activity against MAO-A.

For data set [4], the system named is MAO. Briefly: Inhibition of MAO - Ex vivo, rat (14C p-tyramine substrate). The class given is in vivo. The settings on record: for % Inhibition of MAO - Brain: 18 hr; for % Inhibition of MAO - Duodenum / % Inhibition of MAO - Heart / % Inhibition of MAO - Liver: 2 hr. The protocol:
The ability of a compound of Formula I or II to inhibit MAO can be determined ex vivo by the following procedure:
The test compound is administered intraperitoneally (ip), intravenously (iv), or orally (po) to rats or mice and the animals are killed at various times after treatment. […] MAO activity is determined in the homogenates using ^14 C p-tyramine, as the substrate. […] Selectivity can be determined by repeating the above-described test using either ^14 C 5-hydroxytryptamine (for MAO-A) or ^14 C phenethylamine (for MAO-B) as the substrate for determining the % inhibition

The test system of data set [5] is MAO. Briefly: Inhibition of MAO - In vivo: change in levels of endogenous MAO substrates and metabolites in mouse brain. Also noted: species or system mice. The settings on record: 16 hr. The protocol: The ability of a compound of Formula I or II to inhibit MAO can be determined in vivo in mice according to the following procedure, wherein changes in concentration of the endogenous MAO substrates and the metabolites thereof are assayed.
Mice are given an intraperitoneal injection of the test compound and 2 hours or 16 hours later the animals are killed. The levels of dopamine, dihydroxyphenylacetic acid (DOPAC), 5-hydroxytryptamine (5-HT), and 5-hydroxyindole-3-acetic acid (5-HIAA) in brain homogenates are determined by the method of J. Wagner et al, J. Chromatog. 164, 41 (1979) and P. Bey et al, Br. J. Pharmac., 70, 571 (1980).

Data set [6] deals with heart rate response to p-tyramine. Nature of the data set: Cheese effect: potentiation of heart-rate response to p-tyramine in rats. The settings on record: rat; for risk of producing the cheese effect (in words): in vivo.
Method: The following test procedure can be employed to assess the potential of a compound of Formula I or II for producing the "cheese effect":
Rats are administered an intravenous injection of the test compound at various dosage levels, and 30 minutes later the rats are challenged with several intravenous or intraduodenal dodes of p-tyramine. The heart rate response is measured.

Like-named read-outs stand apart in the source and are kept apart here.

For `N[C@@H]1C[C@H]1c1ccccc1` (relative stereo) [tranyclcypromine], in data set [1], the “preferential inhibition of MAO-A or MAO-B (in words)” value (shortened to “preferential inhibition”) is “not preferential in their action upon MAO”.
As a reminder, the IC50 is the midpoint of a concentration-inhibition curve. On to `NC/C(=C/F)c1cccc(O)c1` [(E)-2-(3'-hydroxy)phenyl-3-fluoroallylamine], for which the half-inhibitory concentration (IC50) in data set [2] is 50 nM.
Regarding `NC/C(=C/F)c1cccc(C(F)(F)F)c1` [(E)-2-(3'-trifluoromethyl)phenyl-3-fluoroallylamine], the IC50 in data set [2] came out at 7 nM.
The same measure, in the same setting: next, `NCC(=C(F)F)c1ccccc1` [2-phenyl-3,3-difluoroallylamine, 2-Phenyl-3,3-difluoroallylamine]: 10000 nM; `COc1ccccc1/C(=C\F)CN` [(E)-2-(2'-Methoxy)phenyl-3-fluoroallylamine]: 2500 nM.
`NC/C(=C/F)c1ccc(Cl)cc1` [(E)-2-(4'-Chloro)phenyl-3-fluoroallylamine]: the concentration for half-maximal inhibition (IC50) in data set [2] was found to be 20 nM. Moreover, the “Selectivity (ratio of inhibitory activity against MAO-B versus MAO-A)” value in data set [3] worked out at 10.
Turning to `Cc1cc(C(=O)NNCc2ccccc2)no1` [isocarboxazid], the “preferential inhibition” value in data set [1] is on record as “not preferential in their action upon MAO”.
For `COc1ccc(/C(=C\F)CN)cc1OC` [(E)-2-(3',4'-Dimethoxy)phenyl-3-fluoroallylamine], the IC50 in data set [2] came to 2500 nM. Further, in data set [3], the “selectivity for MAO-B as compared to MAO-A (in words)” value (shortened to “selectivity for MAO-B”) is given as “marked selectivity for MAO-B as compared to MAO-A” and the “Selectivity (ratio of inhibitory activity against MAO-B versus MAO-A)” value turned out to be 1000. Also, the “selectivity for MAO-B” value in data set [3] (listed as (E)-2-(3',4'-dimethoxyphenyl)-3-fluoroallylamine) is reported as “selective inhibitors of MAO-B”. The “% Inhibition of MAO - Brain” value in data set [4] (0.5 mg/kg po) was determined as 79%. In addition, in data set [4] (1.0 mg/kg iv), the “% Inhibition of MAO - Duodenum” value worked out at 40%, the “% Inhibition of MAO - Heart” value amounted to 17% and the “% Inhibition of MAO - Liver” value amounted to 58%. For the same compound, the “% Inhibition of MAO - Brain” value in data set [4] (10.0 mg/kg po) was 93%. Besides, in data set [5] (10 mg/kg ip), the “% Change (compared to control) - 5-HIAA” value was -8%, the “% Change (compared to control) - 5-HT” value is given as “+31%”, the “% Change (compared to control) - DOPAC” value is -62% and the “% Change (compared to control) - Dopamine” value is on record as “+18%”. Besides, in data set [5] (50 mg/kg ip), the “% Change (compared to control) - 5-HIAA” value is -32%, the “% Change (compared to control) - 5-HT” value is listed as “+122%”, the “% Change (compared to control) - DOPAC” value was -85% and the “% Change (compared to control) - Dopamine” value is given as “+22%”. For the same compound, in data set [6] (dose 1.0 (iv), p-tyramine i.d.), the “Potentiation of heart-rate response to p-tyramine” value (from here on “Potentiation … to p-tyramine”) was determined as 2.5 fold. For the same compound, in data set [6] (dose 1.0 (iv), p-tyramine i.v.), the “Potentiation … to p-tyramine” value stood at 2.3 fold. For the same compound, the “risk of producing the cheese effect (in words)” value in data set [6] was “significantly decreased risk”.
On to `CCNC/C(=C/F)c1cccc(OC)c1` [(E)-N-Ethyl 2-(3'-methoxy)phenyl-3-fluoroallylamine], for which the IC50 in data set [2] came out at 3000 nM.
Consider `NC/C(=C\F)c1ccccc1` [(Z)-2-phenyl-3-fluoroallylamine, (Z)-2-Phenyl-3-fluoroallylamine], for which the half-maximal inhibitory concentration (IC50) in data set [2] came to 1000 nM.
The same measure, in the same setting: the result for `C=C(CN)c1ccccc1` [2-phenylallylamine, 2-Phenylallylamine] reads 400000 nM.
Regarding `NC/C(=C/F)Cc1ccccc1` [(E)-2-benzyl-3-fluoroallylamine, (E)-2-2-Benzyl-3-fluoroallylamine], the IC50 in data set [2] was 7500 nM. Besides, in data set [3], the “selectivity for MAO-B” value is recorded as “marked selectivity for MAO-B as compared to MAO-A” and the “Selectivity (ratio of inhibitory activity against MAO-B versus MAO-A)” value was found to be 200.
In the case of `C=C(CN)c1cccc(OC)c1` [2-(3-methoxy)phenylallylamine, 2-(3'-Methoxy)phenylallylamine], in data set [2], the IC50 came to 10000 nM.
In the case of `COc1ccc(/C(=C\F)CN)cc1` [(E)-2-(4'-Methoxy)phenyl-3-fluoroallyl amine], the “% Inhibition of MAO - Duodenum” value in data set [4] (0.1 mg/kg iv) turned out to be 80%. For the same compound, the “% Inhibition of MAO - Heart” value in data set [4] (0.1 mg/kg iv) stood at 50%. Also, the “% Inhibition of MAO - Liver” value in data set [4] (0.1 mg/kg iv) came out at 30%. Further, the “% Inhibition of MAO - Brain” value in data set [4] (1.0 mg/kg po) is reported as 86%; in data set [4] (5.0 mg/kg po) it was 97%. The “Potentiation … to p-tyramine” value in data set [6] (dose 0.1 (iv), p-tyramine i.d.) was 2.0 fold; in data set [6] (dose 0.1 (iv), p-tyramine i.v.) it was 1.4 fold; in data set [6] (dose 1.0 (iv), p-tyramine i.d.), 4.6 fold; in data set [6] (dose 1.0 (iv), p-tyramine i.v.), 5.2 fold. The “risk of producing the cheese effect (in words)” value in data set [6] is given as “significantly decreased risk”.
`COc1cccc(/C(=C\F)CN)c1` [(E)-2-(3'-Methoxy)phenyl-3-fluoroallylamine]: the IC50 in data set [2] was 5 nM. Also, the “Selectivity (ratio of inhibitory activity against MAO-B versus MAO-A)” value in data set [3] stood at 4. In data set [4] (0.1 mg/kg iv), the “% Inhibition of MAO - Duodenum” value came out at 90%, the “% Inhibition of MAO - Heart” value is given as 98% and the “% Inhibition of MAO - Liver” value came to 70%.
On to `C=C(CN)c1cccc(O)c1` [2-(3-hydroxy)phenylallylamine, 2-(3'-Hydroxy)phenylallylamine], for which, in data set [2], the IC50 came to 250 nM.
In the case of `NNCCc1ccccc1` [phenelzine], the “preferential inhibition” value in data set [1] is “not preferential in their action upon MAO”.
On to `COc1ccc(C/C(=C\F)CN)cc1` [(E)-2-(4'-Methoxy)benzyl-3-fluoroallylamine], for which, in data set [2], the IC50 is 3000 nM. In data set [3], the “selectivity for MAO-B” value was “marked selectivity for MAO-B as compared to MAO-A” and the “Selectivity (ratio of inhibitory activity against MAO-B versus MAO-A)” value amounted to 500.
`NCC(=C(Br)Br)c1ccccc1` [2-phenyl-3,3-dibromoallylamine, 2-Phenyl-3,3-dibromoallylamine]: the IC50 in data set [2] was 500000 nM.
Still for that read-out and setting: the result for `NC/C(=C/Cl)c1ccccc1` [(E)-2-phenyl-3-chloroallylamine, (E)-2-Phenyl-3-chloroallylamine] reads 100000 nM; that for `NCC(=CBr)c1ccccc1` [2-phenyl-3-bromoallylamine, 2-Phenyl-3-bromoallylamine], 40000 nM.
`CCNC/C(=C/F)c1ccc(OC)c(OC)c1` [(E)-N-ethyl 2-(3',4'-dimethoxy)phenyl-3-fluoroallylamine]: the IC50 in data set [2] came out at 70000 nM.
